The values below come from PubChem BioAssay AID256 (DTP/NCI, 2004).

Inconclusive results and toxic doses are left out.

The test relates to CD2F1 mice, L1210 leukemia ip, survival T/C. The experiment in a line: NCI In Vivo Anticancer Drug Screen. Data for tumor model L1210 Leukemia (intraperitoneal) in CD2F1 (CDF1) mice. The following applies: endpoint: mean survival time, higher = longer survival. In outline:
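Vehicle-treated tumor-bearing mice served as controls (C) for compound-treated mice (T). Reported figure is T divided by C.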

[1] abbreviates: dose: 100.0 mg/kg/injection, schedule: Q04DX002 (ip), vehicle: saline with Tween-80.
Setting [2] is: dose: 200.0 mg/kg/injection, schedule: Q04DX002 (ip), vehicle: saline with Tween-80.
[3] abbreviates: dose: 400.0 mg/kg/injection, schedule: Q04DX002 (ip), vehicle: saline with Tween-80.
The mark [4] stands for this setting: dose: 75.0 mg/kg/injection, schedule: Q01DX001 (ip), vehicle: saline.
The mark [5] stands for this setting: dose: 100.0 mg/kg/injection, schedule: Q01DX001 (ip), vehicle: saline with Tween-80.
The mark [6] stands for this setting: dose: 200.0 mg/kg/injection, schedule: Q01DX001 (ip), vehicle: saline with Tween-80.
Setting [7] is: dose: 400.0 mg/kg/injection, schedule: Q01DX001 (ip), vehicle: saline with Tween-80.
The mark [8] stands for this setting: dose: 100.0 mg/kg/injection, schedule: Q04DX003 (ip), vehicle: saline.
The mark [9] stands for this setting: dose: 200.0 mg/kg/injection, schedule: Q04DX003 (ip), vehicle: saline.
Setting [10] is: dose: 400.0 mg/kg/injection, schedule: Q04DX003 (ip), vehicle: saline.
The mark [11] stands for this setting: dose: 100.0 mg/kg/injection, schedule: Q01DX009 (ip), vehicle: saline with Tween-80.
Where [12] appears, read: dose: 100.0 mg/kg/injection, schedule: Q04DX003 (ip), vehicle: saline with Tween-80.
[13] abbreviates: dose: 200.0 mg/kg/injection, schedule: Q01DX009 (ip), vehicle: saline with Tween-80.
[14] abbreviates: dose: 200.0 mg/kg/injection, schedule: Q04DX003 (ip), vehicle: saline with Tween-80.
Setting [15] is: dose: 400.0 mg/kg/injection, schedule: Q04DX003 (ip), vehicle: saline with Tween-80.
[16] abbreviates: dose: 400.0 mg/kg/injection, schedule: Q01DX009 (ip), vehicle: saline with Tween-80.
[17] abbreviates: dose: 100.0 mg/kg/injection, schedule: Q04DX003 (ip), vehicle: other.
[18] abbreviates: dose: 200.0 mg/kg/injection, schedule: Q04DX003 (ip), vehicle: other.

Take `Cc1ccc(Cl)cc1NC(=O)OCC(C)C`: the T/C under setting [1] was 90 % of control, the T/C under setting [2] is 93 % of control and the T/C under setting [3] was 90 % of control.

For `O=C(OC1(c2ccccc2)C2CCC1CC2)c1ccc([N+](=O)[O-])cc1` (stereo not drawn), the T/C (dose: 12.5 mg/kg/injection, schedule: Q04DX002 (ip), vehicle: saline with Tween-80) is 96 % of control; the T/C (dose: 25.0 mg/kg/injection, schedule: Q04DX002 (ip), vehicle: saline with Tween-80) is 93 % of control; the T/C (dose: 50.0 mg/kg/injection, schedule: Q04DX002 (ip), vehicle: saline with Tween-80) was 101 % of control.

For `CCC/C=C(\C#N)C(=O)OC`, under setting [4], the T/C was 97 % of control.

Regarding `CC1(C)C(N2CCOCC2)C(c2ccccc2)S1(=O)=O` (stereo not drawn), the T/C reads like this: under setting [5], 101 % of control; under setting [6], 105 % of control; under setting [7], 105 % of control.

In the case of `COC(=O)C1=CCN(C)CC1`, the T/C under setting [8] is 97 % of control, the T/C under setting [9] is 96 % of control and the T/C under setting [10] was 90 % of control.

As for `O=C(NCCCCCCCCNC(=O)N1CC1)N1CC1`, the T/C runs as follows: (dose: 1.5 mg/kg/injection, schedule: Q01DX001 (ip), vehicle: carboxymethylcellulose (CMC)) 117 % of control; (dose: 2.25 mg/kg/injection, schedule: Q01DX001 (ip), vehicle: carboxymethylcellulose (CMC)) 111 % of control; (dose: 3.3 mg/kg/injection, schedule: Q01DX001 (ip), vehicle: carboxymethylcellulose (CMC)) 121 % of control; (dose: 5.0 mg/kg/injection, schedule: Q01DX001 (ip), vehicle: carboxymethylcellulose (CMC)) 122 % of control; (dose: 7.5 mg/kg/injection, schedule: Q01DX001 (ip), vehicle: carboxymethylcellulose (CMC)) 152 % of control; (dose: 11.0 mg/kg/injection, schedule: Q01DX001 (ip), vehicle: carboxymethylcellulose (CMC)) 183 % of control.

`O=C(O)C(Cl)(c1ccccc1)C(Cl)c1ccccc1` (stereo not drawn): the T/C was 94 % of control (dose: 50.0 mg/kg/injection, schedule: Q01DX009 (ip), vehicle: saline with Tween-80); 100 % of control under setting [11]; 101 % of control under setting [12]; 98 % of control under setting [13]; 101 % of control under setting [14].

As for `c1ccc(C(c2ccccc2)n2ccnc2)cc1`, the T/C under setting [4] is 100 % of control and the T/C (dose: 150.0 mg/kg/injection, schedule: Q01DX001 (ip), vehicle: saline) was 101 % of control.

In the case of `O=C1C(CO)=C[C@@H](O)[C@H]2O[C@@H]12`, the T/C is 100 % of control under setting [8], 102 % of control under setting [9] and 102 % of control under setting [10].

In the case of `COc1cccc2c1C(=O)c1c(OC)cccc1C2=O`, the T/C runs as follows: (dose: 25.0 mg/kg/injection, schedule: Q01DX005 (ip), vehicle: other) 104 % of control; (dose: 50.0 mg/kg/injection, schedule: Q01DX005 (ip), vehicle: other) 101 % of control; (dose: 100.0 mg/kg/injection, schedule: Q01DX005 (ip), vehicle: other) 101 % of control; (dose: 200.0 mg/kg/injection, schedule: Q01DX005 (ip), vehicle: other) 97 % of control; (dose: 400.0 mg/kg/injection, schedule: Q01DX005 (ip), vehicle: other) 93 % of control.

In the case of `COC(=O)c1ccc(-n2cc(C(=O)OC)c([N+]#N)c2[O-])cc1`, the T/C under setting [1] is 107 % of control; the T/C under setting [2] was 88 % of control; the T/C under setting [14] was 93 % of control; the T/C under setting [3] is 107 % of control; the T/C under setting [15] was 93 % of control.

With `S=c1[nH]nc2n1NC(c1ccccc1)=NN2`, the T/C was 104 % of control under setting [11]; 91 % of control under setting [12]; 112 % of control under setting [13]; 96 % of control under setting [14]; 106 % of control under setting [16]; 101 % of control under setting [15].

`CC(C)OC(CCC#N)c1ccc(Cl)cc1` (stereo not drawn): the T/C (dose: 100.0 mg/kg/injection, schedule: Q01DX009 (ip), vehicle: other) was 98 % of control; the T/C under setting [17] is 94 % of control; the T/C (dose: 200.0 mg/kg/injection, schedule: Q01DX009 (ip), vehicle: other) is 107 % of control; the T/C under setting [18] was 94 % of control; the T/C (dose: 400.0 mg/kg/injection, schedule: Q01DX009 (ip), vehicle: other) is 96 % of control; the T/C (dose: 400.0 mg/kg/injection, schedule: Q04DX003 (ip), vehicle: other) was 93 % of control.

`Cc1ccc(NC(=O)c2cccc(Cl)c2)c(C)c1`: the T/C by setting is: under setting [11], 100 % of control; under setting [12], 96 % of control; under setting [13], 94 % of control; under setting [14], 100 % of control; under setting [16], 96 % of control; under setting [15], 93 % of control.

Regarding `Cc1c([N+](=O)[O-])cc(C(C)(C)C)c(OC(=S)N(C)C)c1[N+](=O)[O-]`, the T/C reads like this: (dose: 6.25 mg/kg/injection, schedule: Q01DX009 (ip), vehicle: saline with Tween-80) 93 % of control; (dose: 12.5 mg/kg/injection, schedule: Q01DX009 (ip), vehicle: saline with Tween-80) 95 % of control; (dose: 25.0 mg/kg/injection, schedule: Q01DX009 (ip), vehicle: saline with Tween-80) 89 % of control.

In the case of `N=c1c2ncn(C3OC(CO)C(O)C3O)c2ncn1Cc1ccc([N+](=O)[O-])cc1` (stereo not drawn), the T/C was 97 % of control (dose: 100.0 mg/kg/injection, schedule: Q01DX001 (ip), vehicle: carboxymethylcellulose (CMC)); 104 % of control (dose: 200.0 mg/kg/injection, schedule: Q01DX001 (ip), vehicle: carboxymethylcellulose (CMC)); 97 % of control (dose: 400.0 mg/kg/injection, schedule: Q01DX001 (ip), vehicle: carboxymethylcellulose (CMC)).

For `OCC#CCOCC(O)CCl` (stereo not drawn), the T/C runs as follows: (dose: 25.0 mg/kg/injection, schedule: Q01DX009 (ip), vehicle: water) 107 % of control; (dose: 50.0 mg/kg/injection, schedule: Q01DX009 (ip), vehicle: water) 98 % of control; (dose: 100.0 mg/kg/injection, schedule: Q01DX009 (ip), vehicle: water) 104 % of control; (dose: 200.0 mg/kg/injection, schedule: Q01DX009 (ip), vehicle: water) 97 % of control.

As for `C[N+](C)(C)CCOC(=O)CCC(=O)OCC[N+](C)(C)C`, the T/C is, setting by setting: (dose: 0.31 mg/kg/injection, schedule: Q01DX009 (ip), vehicle: saline sonified) 92 % of control; (dose: 0.63 mg/kg/injection, schedule: Q01DX009 (ip), vehicle: saline sonified) 96 % of control; (dose: 1.25 mg/kg/injection, schedule: Q01DX009 (ip), vehicle: saline sonified) 103 % of control; (dose: 6.25 mg/kg/injection, schedule: Q04DX003 (ip), vehicle: saline) 101 % of control; (dose: 12.5 mg/kg/injection, schedule: Q04DX003 (ip), vehicle: saline) 100 % of control.

Consider `CC(=O)Nc1ncc2ccccc2c1-c1ccc(NC(=O)CN(CCCl)CCCl)cc1`, for which the T/C reads like this: (dose: 25.0 mg/kg/injection, schedule: Q04DX003 (ip), vehicle: other) 112 % of control; (dose: 50.0 mg/kg/injection, schedule: Q04DX003 (ip), vehicle: other) 116 % of control; under setting [17], 112 % of control; under setting [18], 124 % of control.

`c1ccc(-c2cscc2-c2ccccc2)cc1`: the T/C under setting [5] was 96 % of control, the T/C under setting [6] was 96 % of control and the T/C under setting [7] was 96 % of control.

Take `O=S(=O)(CC(I)c1ccccc1)c1ccccc1` (stereo not drawn): the T/C is, setting by setting: (dose: 75.0 mg/kg/injection, schedule: Q01DX009 (ip), vehicle: saline) 99 % of control; (dose: 150.0 mg/kg/injection, schedule: Q01DX009 (ip), vehicle: saline) 91 % of control; (dose: 300.0 mg/kg/injection, schedule: Q01DX009 (ip), vehicle: saline) 92 % of control.

Take `ClC1(Cl)C2(Cl)C3(Cl)C4(Cl)C(Cl)(Cl)C5(Cl)C3(Cl)C1(Cl)C5(Cl)C24Cl` (stereo not drawn): the T/C under setting [11] is 97 % of control; the T/C under setting [12] is 103 % of control; the T/C under setting [13] is 102 % of control; the T/C under setting [14] was 94 % of control; the T/C under setting [16] is 100 % of control; the T/C under setting [15] was 96 % of control.
